Data reported in patent publication US5643931A, “Bisoxadiazolidine derivative” (Yamanouchi Pharmaceutical Co., Ltd., priority 1993, dated 1997).

Tested on: kk mice
Experiment: Hypoglycemic action (blood sugar level decreasing ratio after 4 days of oral administration)
Format: in vivo
Details: 30 mg/day, daily for 4 days, in 0.5% methyl cellulose, six male kk mice per group, blood sampled before and on fifth day, *** = p<0.001
Description: Male kk mice of 4 to 5 w were purchased from CLEA Japan Inc. These animals were separately reared with a high calorie food (CMF, manufactured by Oriental Yeast), and the animals of which the body weight was more than 40 g were used in the test.
Measurement of the blood sugar level was carried out by collecting a 10 μl portion of blood from a tail vein, removing protein from the collected sample by its treatment with 100 μl of 0.33N perchloric acid, and after centrifugation, measuring glucose in the resulting supernatant by the glucose oxidase method. Six animals having a blood sugar level of more than 200 mg/dl were used as one group in the test.
Each drug was suspended in 0.5% methyl cellulose and orally administered daily for 4 days. Blood samples were collected before and on the fifth day of the drug administration from the tail vein. Blood sugar level was determined with the aforementioned method.
The hypoglycemic activity was expressed as the blood sugar level decreasing ratio to the pre-administration level and statistically evaluated as a significant threshold value of p=0.05.

O=c1[nH]c(=O)n(Cc2ccc(Oc3cccc(Oc4ccc(Cn5oc(=O)[nH]c5=O)cc4)c3)cc2)o1 [Example 6, 1,3-Bis[4-[(3,5-dioxo-1,2,4-oxadiazolidin-2-yl)methyl]phenoxy]benzene]
blood sugar level decreasing ratio to the pre-administration level: 53%
